From publication PMC9782245, “Synthesis and Structural Optimization of 2,7,9-Trisubstituted purin-8-ones as FLT3-ITD Inhibitors” (International Journal of Molecular Sciences, 2022) come the findings set out here.

Data set [1] concerns the target T1, EphA1 (Homo sapiens, UniProt P21709).
T1 construct: purchased Eurofins Discovery (France)
T1 sequence (P21709 26-976): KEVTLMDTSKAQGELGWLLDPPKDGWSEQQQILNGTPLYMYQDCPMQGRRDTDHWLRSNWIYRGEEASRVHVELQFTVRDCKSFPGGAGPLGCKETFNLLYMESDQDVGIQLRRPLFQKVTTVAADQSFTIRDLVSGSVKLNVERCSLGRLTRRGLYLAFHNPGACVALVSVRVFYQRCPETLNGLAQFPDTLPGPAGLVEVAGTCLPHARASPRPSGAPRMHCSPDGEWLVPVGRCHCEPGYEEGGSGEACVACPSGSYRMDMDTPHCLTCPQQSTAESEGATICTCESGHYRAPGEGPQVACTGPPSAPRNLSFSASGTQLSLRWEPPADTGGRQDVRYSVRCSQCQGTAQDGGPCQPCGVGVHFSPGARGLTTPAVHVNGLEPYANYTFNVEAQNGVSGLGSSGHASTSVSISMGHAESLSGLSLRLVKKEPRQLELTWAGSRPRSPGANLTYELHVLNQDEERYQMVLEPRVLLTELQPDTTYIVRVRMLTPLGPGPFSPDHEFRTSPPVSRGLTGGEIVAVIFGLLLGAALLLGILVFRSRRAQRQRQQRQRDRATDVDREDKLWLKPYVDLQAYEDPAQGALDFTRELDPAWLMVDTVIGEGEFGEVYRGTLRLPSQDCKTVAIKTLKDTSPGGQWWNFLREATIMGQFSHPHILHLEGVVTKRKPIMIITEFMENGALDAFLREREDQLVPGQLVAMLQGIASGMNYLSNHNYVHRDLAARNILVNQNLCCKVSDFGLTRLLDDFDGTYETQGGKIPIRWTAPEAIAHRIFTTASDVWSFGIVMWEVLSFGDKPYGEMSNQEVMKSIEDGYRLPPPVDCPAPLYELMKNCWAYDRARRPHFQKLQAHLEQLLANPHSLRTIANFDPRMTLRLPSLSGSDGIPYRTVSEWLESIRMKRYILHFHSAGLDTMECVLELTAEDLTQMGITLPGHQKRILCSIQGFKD
Put plainly: Kinase selectivity panel at 1 µM (Eurofins), EphA1. It counts as biochemical. The following applies: read-out: residual enzyme activity EphA1. How it is done:
(§1) Three representative compounds (14d, 14e, and 15a) were profiled in a 1 µM concentration against 30 kinases that were selected as known off-targets of approved CDK4/6 inhibitors. […] Additional sensitive kinases include STK16, EphA1, MEKK2, SRC, and MER (≤10% of residual enzyme activities), which are not targets of the structurally similar CDK4/6 inhibitor, trilaciclib. We also screened compound 15a, an analogue of 14d, bearing isopropyl at position 7 of the purine instead of the methyl group. This change rapidly diminished the potency against CDK4 (dropped to 90% of residual enzyme activity), but the preference for FLT3 remained (1st rank) (Figure 2).
(§2) CDK/cyclin complexes and FLT3 kinases were assayed as previously described. Protein kinase selectivity was evaluated at a single concentration (1 µM) by screening against 30 enzymes at Eurofins Discovery (France).

In data set [2] the target is T2, Lyn (Homo sapiens, UniProt P07948).
T2 construct: purchased Eurofins Discovery (France)
T2 sequence (P07948 whole entry): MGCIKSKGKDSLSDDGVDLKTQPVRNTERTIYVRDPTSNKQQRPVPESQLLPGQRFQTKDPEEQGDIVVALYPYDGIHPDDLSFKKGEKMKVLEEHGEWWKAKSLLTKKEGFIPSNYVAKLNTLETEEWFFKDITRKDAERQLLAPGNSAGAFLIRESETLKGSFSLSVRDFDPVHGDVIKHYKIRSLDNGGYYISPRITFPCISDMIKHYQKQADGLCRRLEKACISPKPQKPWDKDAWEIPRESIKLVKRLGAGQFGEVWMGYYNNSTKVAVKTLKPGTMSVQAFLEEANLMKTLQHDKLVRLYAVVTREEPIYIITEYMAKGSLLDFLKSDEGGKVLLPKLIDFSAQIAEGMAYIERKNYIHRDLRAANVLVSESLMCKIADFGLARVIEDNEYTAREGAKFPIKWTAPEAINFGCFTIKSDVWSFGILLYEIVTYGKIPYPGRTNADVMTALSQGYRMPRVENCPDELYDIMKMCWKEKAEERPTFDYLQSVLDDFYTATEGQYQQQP
The data set is described as follows: Kinase selectivity panel at 1 µM (Eurofins), Lyn. Type of data set: biochemical. The following applies: read-out: residual enzyme activity Lyn. The protocol: as §1, §2

In data set [3] the test system is MV4-11 cells. The data set is described as follows: Flow cytometric cell cycle analysis, MV4-11. It counts as cell-based, Human. The settings on record: increasing doses, 24 h. How it is done: FLT3 inhibition causes G1-cell cycle arrest in FLT3-dependent cell lines such as MV4-11; we, therefore, performed flow cytometric analysis to evaluate cell cycle changes in MV4-11 and K562 cell lines treated with 200 nM compounds for 24 h. […] Specifically, 18 compounds arrested >85% of cells in the G1 phase, which is >30% cells in the G1 phase of the cell cycle than in control cells (Figure 4A).
(§3) Finally, we performed flow cytometric analysis with different concentrations of 15a in MV4-11 and MOLM13 (another FLT-ITD positive cell line) and K562 cell lines treated for 24 h (Figure 5).
(§4) Asynchronously growing cells were seeded into a 96-well plate and, after a preincubation period, treated with tested compounds for 24 h. The treated cells were stained directly (or after trypsinization for the adherent cells) with the 5× staining solution (17 mM trisodium citrate dihydrate, 0.5% IGEPAL CA-630, 7.5 mM spermine tetrahydrochloride, and 2.5 mM Tris; pH 7.6 containing […] propidium iodide). After the staining, DNA content was analyzed using flow cytometry using a 488 nm laser (BD FACS Verse with software BD FACSuite^TM, version 1.0.6). Cell cycle distribution was analyzed using ModFit LT (Verity Software House, version 5.0). Palbociclib, trilaciclib, and quizartinib were purchased from MedChemExpress, Monmouth Junction, NJ, USA.
In general terms: In flow cytometry, cells or beads pass a laser one at a time.

Data set [4] concerns MOLM13 cells. The data set is described as follows: Flow cytometric cell cycle analysis, MOLM13. The following applies: increasing doses, 24 h. It counts as cell-based. How it is done: as §3
as §4, with “5.0).” for “5.0). Palbociclib, trilaciclib, and quizartinib were purchased from MedChemExpress, Monmouth Junction, NJ, USA.”

The test system of data set [5] is MV4-11 xenograft. The data set is described as follows: MV4-11 subcutaneous xenograft model in NSG mice. Type of data set: in vivo. The following applies: 20 mg/kg, daily i.p. From the text:
Finally, we tested the in vivo activity of 15a in a model of AML based on subcutaneous xenotransplantation of MV4-11 cells in immunodeficient mice.
The experimental design was approved by the Institutional Animal Care and Use Committee (MSMT-37334/2020-4). Immunodeficient adult female NOD.Cg-Prkdc^scidIl2rg^tm1Wjl/SzJ mice (referred to as NSG mice) were purchased from The Jackson Laboratory and preserved in a pathogen-free environment in individually ventilated cages, provided with sterilized food and water. NSG mice were subcutaneously inoculated with 10 × 10^6 leukemia cells. […] Each cohort contained 6 animals. Three perpendicular dimensions (in millimeters) were measured daily with a digital caliper and tumor volumes were calculated using the following formula: π/6 × length × width × height. An experiment was terminated (and mice euthanized) when tumors exceeded 20 mm in the largest diameter.

A short description of data set [6]: Stability studied on Caco-2 cells. The settings on record: in comparison with trilaciclib. Type of data set: in vitro ADME.

What is called melting point is the temperature of the solid-liquid transition.

SMILES strings stand for the structures.

Regarding `Cn1c(=O)n(C2CCCC2)c2nc(Nc3ccc(N4CCNCC4)cc3)ncc21` [14d], the melting point was 110 to 112 °C. The remaining activity at 1 µM in data set [1] is at most 10%.

As for `CC(C)n1c(=O)n(C2CCCC2)c2nc(Nc3ccc(N4CCNCC4)cc3)ncc21` [15a, 9-cyclopentyl-7-isopropyl-2-((4-(piperazin-1-yl)phenyl)amino)-7,9-dihydro-8H-purin-8-one], in data set [2], the remaining activity at 1 µM is at most 10%. For the same molecule, in data set [3], the “cells in the G1 phase, MV4-11” value is given as “up to 90%”. Besides, the “cells in the G1 phase, MOLM13” value in data set [4] is “up to 90%”. Moreover, in data set [5], the “mice weight during therapy” value is given as “no significant reduction in mice weight”. The “growth of xenografted MV4-11 cells” value in data set [5] (7 days, vs vehicle) was “significant reduction in the growth”.

Consider `Cn1c(=O)n(C2CCCCC2)c2nc(Nc3ccc(N4CCNCC4)cc3)ncc21` [14e], for which the remaining activity at 1 µM in data set [1] was at most 10%. Further, in data set [6], the “stability (Caco-2 cells)” value is “substantially higher stability”.
